Data set [1] in a line: Cell viability (Presto Blue), A875 shp75. Type of data set: cell-based, human. The conditions noted are these: human, A875 shp75 cells, 2 days; for viability at 2 days, 1 uM: Div17E5 1 uM; for viability at 2 days, 1.5 uM: Div17E5 1.5 uM. As for the experimental part:
(§1) To measure the cytotoxic effect of Div17E5, A875 NT or shp75 cells were seeded at 2000 cells per well (in 100 μL DMEM) in a 96-well plate and incubated for 12 h. Next, Div17E5 at various concentrations was added and incubated at 37 °C in 5% CO2 for 2 days. Following treatment, 10 μL Presto Blue® (resazurin, ThermoFIsher) was added to each well of the 96-well plate and incubated for 2 h at 37 °C in 5% CO2. Cellular fluorescence in each well was measured at 535 nm excitation and 615 nm emission using a microtiter plate reader. Data was converted into the relative cell viability (%) from the fluorescence of cells in each treatment relative to that of the DMSO control group (set as 100%).

The test system of data set [2] is A875 shp75 cells. As to the kind of experiment: Cell viability (Presto Blue), A875 shp75. The format is cell-based, human. The note with it: for viability at 5 µM: Div17E5 5 uM. The procedure:
as §1

Data set [3] is classed as in vivo. The conditions noted are these: oral 200 mg/kg/day.
For data set [4], the system named is A875-shp75 melanoma xenograft. As to the kind of experiment: Melanoma lung invasion assay, A875-shp75, treatment from one day before cell injection. The format is in vivo, SCID mice. As for the experimental part: Next, to assess the potential inhibitory effects of Np75-4A22 on melanoma cell migration and tissue invasion in vivo, we utilized the highly metastatic human A875 xenograft model. […] Initially, to mimic metastatic dissemination from the primary tumor site, A875-NT or A875-shp75 cells expressing GFP-Luc (for live-monitoring of tumor growth) were injected intravenously in female SCID mice 24 h following a single oral administration of Np75-A422 (200 mg/kg) or drug vehicle alone. Mice received 3 cycles of Np75-A422 (200 mg/kg/day) following a 5 day on and 2 days off drug schedule for a total of 3 weeks (Fig. 8A). Metastatic spread to the lungs was monitored weekly by luciferase activity using the Xenogen IVIS-200 Optical in vivo luciferase imaging system and mice were sacrificed after the third week. […] In addition, assessment of the metastatic spread was also quantified by histological assessment of non-consecutive lung sections stained for human nucleolin to detect the tumor cells. […] In addition, and as expected, high expression of p75^NTR was detected in lung tumors established by A875-NT cells but was negligible in tumors derived from A875-shp75 cells (Fig. EV10).
Eight-week-old female SCID mice (Charles River Laboratories, Shrewsbury, MA, USA) were housed in groups of three to five and maintained on a 12-h light/dark schedule with a temperature of 22 °C ± 1 °C and a relative humidity of 50% ± 5%. Food and water were available ad libitum. This research study was reviewed and approved by the University of Calgary Animal Care Committee (AC22-0054) and McGill University (AUP-JGH-8269) and adheres to established ethical principles and guidelines. A875-GFPLuc (A875-NT) or A875-GFPLuc shp75 (A875-shp75) cells harvested using Puck’s EDTA were resuspended in PBS and injected intravenously into SCID mice (5 × 10^5 cells/200 μl per mouse). Np75-4A22 was dissolved in 0.5% sodium carboxymethyl cellulose (NaCMC) in reverse osmosis H2O and administered by oral gavage at 200 mg/kg/day starting one day prior to intravenous (tail vein) injection of tumor cells and continued for 3 1-week cycles (cycle: 5 days on drug, 2 days off drug). Tumor spread to the lung was monitored weekly by luciferase activity using the Xenogen IVIS-200 Optical in vivo luciferase imaging system as described previously (Lun et al, [2016]) and by immunohistochemistry (IHC) at designated time points. IHC was performed after formalin fixation, paraffin embedding and sectioning of the lungs, using a human-specific mouse polyclonal nucleolin antibody (1:500 dilution) and detected using Dako liquid DAB+ Substrate Chromogen System (Dako: k3468, California, USA) followed by a hematoxylin counterstain (Sigma, Oakville, ON, Canada). Sections were mounted and imaged on an Olympus phase contrast microscope (Olympus Life Science, Tokyo, Japan). For immunofluorescence, sections were stained with anti-human nucleolin and anti-human p75NTR antibodies (1:1000 dilution), subsequently detected with 1:200 dilutions of Alexa Fluor™ 488 Goat anti-Mouse IgG (H + L) Highly Cross-Adsorbed Secondary Antibody and Alexa Fluor™ 568 Goat anti-Rabbit IgG (H + L) Cross-Adsorbed Secondary Antibody. Sections were further stained with DAPI to detect all nuclei. Between each treatment, TBS Automation Wash Buffer (Biocare Medical TWB945M) was employed. Images were taken with LSM800 confocal microscope and ZEN system.

The mark [5] stands for this setting: N=3, read-out: Cell Viability, Mean.
The mark [6] stands for this setting: read-out: Cell Viability, n1-n3.

Molecules are shown by their SMILES. “And” between values parts separate entries of the source, which are not always exact repeats. Equal entries are not always repeated. Where two headings read alike, the source gives them in different places.

For the compound `Oc1ccc(-c2cncc(Nc3ccc(Br)c(Cl)c3)n2)cc1` [Div17E5], the viability at 2 days, 0.5 uM in data set [1] (Div17E5 0.5 uM, read-out: Cell Viability, n1-n3) was 101%. The values for the viability at 2 days, 1 uM in data set [1] (setting [5]) and in data set [1] (setting [6]) were 107% and 101%, respectively. Also, the viability at 2 days, 1.5 uM in data set [1] (setting [5]) worked out at 103%; in data set [1] (setting [6]), 107%. Also, the “Cell Viability, n1-n3” value in data set [2] (Div17E5 0.5 uM, 2 days) is 104%; in data set [2] (Div17E5 1 uM, 2 days), 109% and 112%; in data set [2] (Div17E5 1.5 uM, 2 days), 100%; in data set [2] (Div17E5 2 uM, 2 days) it was 96% and 100%; in data set [2] (Div17E5 2.5 uM, 2 days), 90% and 99%; in data set [2] (Div17E5 7.5 uM, 2 days) it was 81% and 91%. Moreover, the “Cell Viability, n1-n3” value in data set [2] (Div17E5 10 uM, 2 days) is 90% and 78%. In addition, in data set [2] (Homo sapiens, A875, 48 h, Div17E5 0.5 uM, 2 days, N=3), the viability at 0.5 µM was found to be 103%. The viability at 2 µM turned out to be 101% in data set [2] (Homo sapiens, A875, 48 h, Div17E5 2 uM, 2 days, N=3, read-out: Cell Viability, Mean) and 107% in data set [2] (Homo sapiens, A875, 48 h, Div17E5 2 uM, 2 days, read-out: Cell Viability, n1-n3). The viability at 2.5 µM in data set [2] (Homo sapiens, A875, 48 h, Div17E5 2.5 uM, 2 days, N=3, read-out: Cell Viability, Mean) worked out at 92%; in data set [2] (Homo sapiens, A875, 48 h, Div17E5 2.5 uM, 2 days, read-out: Cell Viability, n1-n3) it was 86%. Besides, the viability at 5 µM is 93% in data set [2] (Homo sapiens, A875, 48 h, 2 days, N=3, read-out: Cell Viability, Mean) and 101% in data set [2] (Homo sapiens, A875, 48 h, 2 days, read-out: Cell Viability, n1-n3). The viability at 7.5 µM worked out at 86% in data set [2] (Homo sapiens, A875, 48 h, Div17E5 7.5 uM, 2 days, N=3, read-out: Cell Viability, Mean) and 85% in data set [2] (Homo sapiens, A875, 48 h, Div17E5 7.5 uM, 2 days, read-out: Cell Viability, n1-n3). In addition, the viability at 10 µM in data set [2] (Homo sapiens, A875, 48 h, Div17E5 10 uM, 2 days, N=3, read-out: Cell Viability, Mean) stood at 84%; in data set [2] (Homo sapiens, A875, 48 h, Div17E5 10 uM, 2 days, read-out: Cell Viability, n1-n3), 85%. Also, the cell viability result in data set [2] (above 10 μM) is given as “sensitive”; in data set [2] (doses up to 10 μM), “largely refractory”.

Turning to `Cc1cccc(-c2cncc(Nc3ccc(Br)c(Cl)c3Cl)n2)c1C` [Np75-4A22], in data set [3] (21 consecutive days, females and males), the “mortality, repeated dose” value is recorded as “No mortality”. For the same compound, the “treatment-related effects, repeated dose, females” value in data set [3] (21 days, females) is “mild decrease in lymphocyte cellularity and increase granulopoiesis”. Further, the “treatment-related effects, repeated dose, males” value in data set [3] (21 days, males) is recorded as “no treatment-related effects”. In addition, the “Metastatic Nodules/Lung Section, Average” value in data set [4] (A875-shp75, average of 5 non-consecutive slides per individual mouse) was 1.2 and 0.8 and 0.4 and 0.2 and 1.8 and 0.6 and 10.6. Moreover, in data set [4] (A875-shp75, average of 5 slides of one mouse), the “Cancer Cells/Lung Section, Average per mouse” value is 7 and 6 and 2.8 and 3.2 and 3.6 and 25.6 and 1.6 and 13 and 132.2. Further, the “Cancer Cells/Lung Section, group Average” value in data set [4] (A875-shp75, average of all mice) was determined as 21.6667. In addition, the “Metastatic Nodules/Lung Section, group Average” value in data set [4] (A875-shp75, average over all mice of the group) was determined as 1.8. The “Metastatic Nodules/Lung Section, Slide 1” value in data set [4] (A875-shp75, individual mouse, slide 1 of 5 non-consecutive slides/mouse) was 2 and 1 and 0 and 6. The “Metastatic Nodules/Lung Section, Slide 2” value in data set [4] (A875-shp75, individual mouse, slide 2 of 5 non-consecutive slides/mouse) is 2 and 0 and 1 and 3 and 14. Moreover, the “Metastatic Nodules/Lung Section, Slide 3” value in data set [4] (A875-shp75, individual mouse, slide 3 of 5 non-consecutive slides/mouse) was 1 and 0 and 2 and 18. Also, the “Metastatic Nodules/Lung Section, Slide 4” value in data set [4] (A875-shp75, individual mouse, slide 4 of 5 non-consecutive slides/mouse) is 1 and 0 and 2 and 12. In data set [4] (A875-shp75, individual mouse, slide 5 of 5 non-consecutive slides/mouse), the “Metastatic Nodules/Lung Section, Slide 5” value was 0 and 1 and 3. The p75NTR-negative lung tumors entry in data set [4] (oral 200 mg/kg/day, 3 weeks) was “not significantly affected”.
